Several values for one entry are separate records, joined by “and”; a condition that tells them apart may be missing. Identical values can stand only once.
Assay: molar heat capacity at constant pressure
Settings: 101.33 kPa, Crystal

O=C([O-])c1ccccc1.[K+] [potassium benzoate]
Settings | molar heat capacity at constant pressure
78.05 K | 64.02 J/K/mol
79.77 K | 65.4 J/K/mol
80 K | 66.51 J/K/mol
82.44 K | 67.11 J/K/mol
85 K | 69.25 J/K/mol
85.05 K | 69.06 J/K/mol
87.58 K | 70.57 J/K/mol
90 K | 71.99 J/K/mol
90.05 K | 72.16 J/K/mol
92.46 K | 73.51 J/K/mol
94.82 K | 75.08 J/K/mol
95 K | 74.71 J/K/mol
97.13 K | 76.49 J/K/mol
99.4 K | 77.52 J/K/mol
100 K | 77.41 J/K/mol
101.6 K | 78.59 J/K/mol
103.8 K | 79.84 J/K/mol
105 K | 80.09 J/K/mol
106 K | 81.03 J/K/mol
108.1 K | 82.38 J/K/mol
110 K | 82.77 J/K/mol
110.2 K | 83.34 J/K/mol
112.2 K | 84.3 J/K/mol
114.2 K | 85.15 J/K/mol
115 K | 85.42 J/K/mol
116.3 K | 86.65 J/K/mol
118.3 K | 87.5 J/K/mol
120 K | 88.06 J/K/mol
120.4 K | 88.67 J/K/mol
123.5 K | 90.49 J/K/mol
125 K | 90.69 J/K/mol
127.5 K | 92.84 J/K/mol
130 K | 93.3 J/K/mol
131.5 K | 94.64 J/K/mol
135 K | 95.9 J/K/mol
135.4 K | 96.31 J/K/mol
139.4 K | 98.35 J/K/mol
140 K | 98.48 J/K/mol
143.3 K | 100.4 J/K/mol
145 K | 101 J/K/mol
147.2 K | 102.3 J/K/mol
150 K | 103.6 J/K/mol
151.1 K | 103.9 J/K/mol
154.9 K | 105.6 J/K/mol
155 K | 106.1 J/K/mol
158.6 K | 107.2 J/K/mol
160 K | 108.6 J/K/mol
162.3 K | 108.9 J/K/mol
165 K | 111.2 J/K/mol
166 K | 110.7 J/K/mol
169.7 K | 112.6 J/K/mol
170 K | 113.6 J/K/mol
173.3 K | 114.5 J/K/mol
175 K | 116.1 J/K/mol
176.9 K | 115.9 J/K/mol
180 K | 118.6 J/K/mol
180.4 K | 117.8 J/K/mol
185 K | 121 J/K/mol
185.2 K | 119.9 J/K/mol
190 K | 123.5 J/K/mol
190.3 K | 122.8 J/K/mol
194.3 K | 124.8 J/K/mol
195 K | 125.9 J/K/mol
198.3 K | 127 J/K/mol
200 K | 128.3 J/K/mol
202.2 K | 129 J/K/mol
205 K | 130.6 J/K/mol
206.2 K | 131.6 J/K/mol
210 K | 133 J/K/mol
210.2 K | 133.5 J/K/mol
214.1 K | 135.5 J/K/mol
215 K | 135.4 J/K/mol
218.1 K | 137.3 J/K/mol
220 K | 137.7 J/K/mol
222.1 K | 139.3 J/K/mol
225 K | 140 J/K/mol
226.1 K | 141 J/K/mol
230 K | 142.3 J/K/mol
230.1 K | 142.7 J/K/mol
234 K | 144.9 J/K/mol
235 K | 144.6 J/K/mol
237.9 K | 146.3 J/K/mol
240 K | 146.9 J/K/mol
243.1 K | 149 J/K/mol
245 K | 149.2 J/K/mol
248.2 K | 151.2 J/K/mol
250 K | 151.4 J/K/mol
252.2 K | 152.7 J/K/mol
255 K | 153.7 J/K/mol
256.1 K | 154.1 J/K/mol
260 K | 155.9 J/K/mol
260.1 K | 156.2 J/K/mol
264.1 K | 158.2 J/K/mol
265 K | 158.1 J/K/mol
268.1 K | 160.2 J/K/mol
270 K | 160.3 J/K/mol
272.1 K | 161.4 J/K/mol
275 K | 162.5 J/K/mol
276.1 K | 163.3 J/K/mol
280 K | 165.1 J/K/mol and 164.6 J/K/mol
284 K | 166.4 J/K/mol
285 K | 166.8 J/K/mol
287.9 K | 168.1 J/K/mol
290 K | 168.9 J/K/mol
291.8 K | 169.9 J/K/mol
295 K | 171 J/K/mol
295.9 K | 171.5 J/K/mol
298.15 K | 172.3 J/K/mol
299.8 K | 172.8 J/K/mol
300 K | 173.1 J/K/mol
303.7 K | 174.3 J/K/mol
305 K | 175.2 J/K/mol
307.8 K | 176.1 J/K/mol
310 K | 177.3 J/K/mol
311.7 K | 177.6 J/K/mol
315 K | 179.3 J/K/mol
315.6 K | 179.5 J/K/mol
319.5 K | 180.7 J/K/mol
320 K | 181.4 J/K/mol
323.5 K | 182.2 J/K/mol
325 K | 183.4 J/K/mol
327.4 K | 183.7 J/K/mol
330 K | 185.4 J/K/mol
331.4 K | 185.4 J/K/mol
335 K | 187.4 J/K/mol
335.5 K | 187.1 J/K/mol
339.4 K | 188.7 J/K/mol
340 K | 189.4 J/K/mol
343.5 K | 190.7 J/K/mol
345 K | 191.4 J/K/mol
346.5 K | 192.2 J/K/mol
349.5 K | 193.4 J/K/mol
350 K | 193.3 J/K/mol
353.5 K | 195 J/K/mol
355 K | 195.3 J/K/mol
357.5 K | 196.3 J/K/mol
360 K | 197.2 J/K/mol
361.4 K | 197.9 J/K/mol
365 K | 199.1 J/K/mol
365.3 K | 199.4 J/K/mol
369.2 K | 200.8 J/K/mol
370 K | 201 J/K/mol
373.3 K | 202.3 J/K/mol
375 K | 202.9 J/K/mol
377.4 K | 203.7 J/K/mol
380 K | 204.8 J/K/mol
381.4 K | 205.6 J/K/mol
385 K | 206.6 J/K/mol
385.4 K | 206.8 J/K/mol
389.4 K | 208.1 J/K/mol
390 K | 208.4 J/K/mol
393.4 K | 209.9 J/K/mol
395 K | 210.3 J/K/mol
397.3 K | 211.1 J/K/mol

Reference: the NIST ThermoML archive (doi:10.1007/s10765-009-0568-4)
